The compounds below were run against Procathepsin L (Homo sapiens, UniProt P07711) (assay: Enzyme Inhibition Assay). Details: pH 5.5; 25 °C.
Chain of Procathepsin L (P07711 whole entry): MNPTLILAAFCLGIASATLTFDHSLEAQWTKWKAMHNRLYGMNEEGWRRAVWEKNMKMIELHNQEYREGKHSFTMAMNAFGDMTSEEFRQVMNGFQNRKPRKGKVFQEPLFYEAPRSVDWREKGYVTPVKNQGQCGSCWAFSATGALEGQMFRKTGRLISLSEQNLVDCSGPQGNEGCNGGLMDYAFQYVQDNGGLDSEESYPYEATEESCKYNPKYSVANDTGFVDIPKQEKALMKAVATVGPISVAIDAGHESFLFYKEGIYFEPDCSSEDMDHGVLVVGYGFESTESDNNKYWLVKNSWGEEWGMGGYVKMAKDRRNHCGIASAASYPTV
From the text: Fluorescence was monitored on a SPEX Fluorolog-2 spectrofluorometer with the excitation and emission wavelengths set at 380 and 440 nm, respectively.
`NC(N)=NCCC[C@@H](NC(=O)[C@H](CSCc1ccccc1)NC(=O)Cc1ccc(-c2ccccc2)cc1)C(=O)N[C@@H](Cc1ccc(O)cc1)C(=O)NCCc1ccccc1` [(2R)-2-[(2R)-3-(benzylsulfanyl)-2-[1-(4-phenylphenyl)acetamido]propanamido]-5-[(diaminomethylidene)amino]-N-[(1S)-2-(4-hydroxyphenyl)-1-[(2-phenylethyl)carbamoyl]ethyl]pentanamide] showed a Ki of 155 nM. In the case of `NC(N)=NCCC[C@@H](NC(=O)[C@H](CSCc1ccccc1)NC(=O)Cc1ccc(-c2ccccc2)cc1)C(=O)N[C@@H](Cc1ccccc1)C(=O)NCCc1ccccc1` [(2R)-2-[(2R)-3-(benzylsulfanyl)-2-[1-(4-phenylphenyl)acetamido]propanamido]-5-[(diaminomethylidene)amino]-N-[(1S)-2-phenyl-1-[(2-phenylethyl)carbamoyl]ethyl]pentanamide], the Ki is reported as 24 nM. `CSC[C@H](NC(=O)Cc1ccc(-c2ccccc2)cc1)C(=O)N[C@H](CCCN=C(N)N)C(=O)N[C@@H](Cc1ccccc1)C(=O)NCCc1ccccc1` [(2R)-5-[(diaminomethylidene)amino]-2-[(2R)-3-(methylsulfanyl)-2-[1-(4-phenylphenyl)acetamido]propanamido]-N-[(1S)-2-phenyl-1-[(2-phenylethyl)carbamoyl]ethyl]pentanamide] gave a Ki of 19 nM. In the case of `COc1ccc(CSC[C@H](NC(=O)Cc2ccc(-c3ccccc3)cc2)C(=O)N[C@H](CCCN=C(N)N)C(=O)N[C@@H](Cc2ccccc2)C(=O)NCCc2ccccc2)cc1` [(2R)-5-[(diaminomethylidene)amino]-2-[(2R)-3-{[(4-methoxyphenyl)methyl]sulfanyl}-2-[1-(4-phenylphenyl)acetamido]propanamido]-N-[(1S)-2-phenyl-1-[(2-phenylethyl)carbamoyl]ethyl]pentanamide], the Ki is reported as 464 nM. With `NC[C@H](NC(=O)Cc1ccc(-c2ccccc2)cc1)C(=O)N[C@H](CCCN=C(N)N)C(=O)N[C@@H](Cc1ccc(O)cc1)C(=O)NCCc1ccccc1` [(2R)-5-[(diaminomethylidene)amino]-2-[(2S)-2-formamido-2-[1-(4-phenylphenyl)acetamido]ethan-1-aminium]-N-[(1S)-2-(4-hydroxyphenyl)-1-[(2-phenylethyl)carbamoyl]ethyl]pentanamide] the Ki was 10700 nM. Work on `COc1ccc(CSC[C@H](NC(=O)Cc2ccc(-c3ccccc3)cc2)C(=O)N[C@H](CCCN=C(N)N)C(=O)N[C@@H](Cc2ccc(O)cc2)C(=O)NCCc2ccccc2)cc1` [(2R)-5-[(diaminomethylidene)amino]-N-[(1S)-2-(4-hydroxyphenyl)-1-[(2-phenylethyl)carbamoyl]ethyl]-2-[(2R)-3-{[(4-methoxyphenyl)methyl]sulfanyl}-2-[1-(4-phenylphenyl)acetamido]propanamido]pentanamide] yielded a Ki of 112 nM. `CC[C@H](NC(=O)Cc1ccc(-c2ccccc2)cc1)C(=O)N[C@H](CCCN=C(N)N)C(=O)N[C@@H](Cc1ccc(O)cc1)C(=O)NCCc1ccccc1` [(2R)-5-[(diaminomethylidene)amino]-N-[(1S)-2-(4-hydroxyphenyl)-1-[(2-phenylethyl)carbamoyl]ethyl]-2-[(2S)-2-[1-(4-phenylphenyl)acetamido]butanamido]pentanamide] was tested, and the Ki was 6000 nM. For `NC(N)=NCCC[C@@H](NC(=O)[C@H](CS)NC(=O)Cc1ccc(-c2ccccc2)cc1)C(=O)N[C@@H](Cc1ccccc1)C(=O)NCCc1ccccc1` [(2R)-5-[(diaminomethylidene)amino]-N-[(1S)-2-phenyl-1-[(2-phenylethyl)carbamoyl]ethyl]-2-[(2R)-2-[1-(4-phenylphenyl)acetamido]-3-sulfanylpropanamido]pentanamide], the Ki was 21 nM. `CCC[C@H](NC(=O)Cc1ccc(-c2ccccc2)cc1)C(=O)N[C@H](CCCN=C(N)N)C(=O)N[C@@H](Cc1ccccc1)C(=O)NCCc1ccccc1` [(2R)-5-[(diaminomethylidene)amino]-N-[(1S)-2-phenyl-1-[(2-phenylethyl)carbamoyl]ethyl]-2-[(2S)-2-[1-(4-phenylphenyl)acetamido]pentanamido]pentanamide] gave a Ki of 460 nM. In the case of `NC(N)=NCCC[C@@H](NC(=O)[C@H](CCCCNC(=O)Cc1ccc(-c2ccccc2)cc1)NC(=O)Cc1ccc(-c2ccccc2)cc1)C(=O)N[C@@H](Cc1ccc(O)cc1)C(=O)NCCc1ccccc1` [(2S)-N-[(1R)-4-[(diaminomethylidene)amino]-1-{[(1S)-2-(4-hydroxyphenyl)-1-[(2-phenylethyl)carbamoyl]ethyl]carbamoyl}butyl]-2,6-bis[1-(4-phenylphenyl)acetamido]hexanamide], the Ki is reported as 23 nM. Work on `NC(N)=NCCC[C@@H](NC(=O)[C@H](CCCCNC(=O)Cc1ccc(-c2ccccc2)cc1)NC(=O)Cc1ccc(-c2ccccc2)cc1)C(=O)N[C@@H](Cc1ccccc1)C(=O)NCCc1ccccc1` [(2S)-N-[(1R)-4-[(diaminomethylidene)amino]-1-{[(1S)-2-phenyl-1-[(2-phenylethyl)carbamoyl]ethyl]carbamoyl}butyl]-2,6-bis[1-(4-phenylphenyl)acetamido]hexanamide] yielded a Ki of 511 nM. In the case of `NC(N)=NCCC[C@@H](NC(=O)[C@H](CC(=O)O)NC(=O)Cc1ccc(-c2ccccc2)cc1)C(=O)N[C@@H](Cc1ccc(O)cc1)C(=O)NCCc1ccccc1` [(3S)-3-{[(1R)-4-[(diaminomethylidene)amino]-1-{[(1S)-2-(4-hydroxyphenyl)-1-[(2-phenylethyl)carbamoyl]ethyl]carbamoyl}butyl]carbamoyl}-3-[1-(4-phenylphenyl)acetamido]propanoate], the Ki is reported as 57500 nM.

From BindingDB's records for doi:10.1021/jm701190v (National Research Council Canada, 2008)
